One molecule from article PMC11150261, “Evaluation of antibacterial, cytotoxicity, and apoptosis activity of novel chromene-sulfonamide hybrids synthesized under solvent-free conditions and 3D-QSAR modeling studies” (Scientific Reports, 2024) can be followed below.

Common to all, as to format: cell-based
The test system of data set [1] is S. aureus ATCC 25923. Kind of data set: Broth microdilution MIC. The conditions noted are these: for MIC: Staphylococcus aureus, ATCC25923. The procedure:
(§1) A broth microdilution method was utilized to explore the minimum inhibitory concentrations (MIC) of all the newly synthesized compounds against E. coli ATCC 25922 and S. aureus ATCC 25923. Test compounds were prepared using dimethyl sulfoxide (DMSO) as a stock solution, followed by serial dilutions in Mueller Hinton broth containing up to one percent DMSO. At the end, a diluted bacterial suspension from a 0.5 McFarland tube was added to all the wells (the final volume of each well was 1 × 10^5 CFU/ml). In the growth control, a culture medium with bacteria was used as a positive control, and a culture medium without bacteria was used as a negative control (sterility control). The MIC was the lowest concentration of the synthesized compounds that produced no growth on the plate. Sulfisoxazole, functioning as a sulfonamide antibiotic, and gentamicin were employed in a comparative analysis of antibacterial activity, cytotoxicity, and apoptosis assessment.

Data set [2] concerns E. coli ATCC 25922. Kind of data set: Broth microdilution MIC. As to conditions: for MIC: Escherichia coli, ATCC25922. On the procedure:
as §1

For data set [3], the system named is fibroblast L929 cell line. Kind of data set: Apoptosis Annexin V binding assay (flow cytometry). The conditions noted are these: L929 cells, 24 h, IC50 concentration of each compound. The procedure: (§2) To detect apoptosis, the Annexin V binding assay was used. The assay was performed according to the manufacturer's instructions using a FITC Annexin V Apoptosis Detection Kit with PI from BioLegend® (San Diego, California). To conduct this test, the fibroblast L929 cell line (Pasteur Institute, Tehran, Iran) was treated with various concentrations of the newly synthesized compounds and then incubated for 24 h at 37 °C with 5% CO2. Subsequently, each well's supernatant was removed and the cells were washed with PBS. Each well was then filled with 500 μl of Annexin-binding buffer (10 mM HEPES, 140 mM NaCl, and 2.5 mM CaCl2, pH 7.4) and 10 μl of Annexin V and PI. For 15 min, the plates were incubated at room temperature and kept away from light. After incubation, using a BD FACSCalibur flow cytometer (Biosciences, San Jose, CA, USA), the cells were examined after incubation. FlowJo software (version 10.5.3, TreeStar Incorporated, Ashland, OR) was used to analyze flow cytometry data.

Data set [4] can be described thus: Apoptosis Annexin V binding assay (flow cytometry). The conditions noted are these: mouse, L929 fibroblast cells; L929, IC50 concentration, Annexin V-FITC/PI. The procedure: as §2
Data set [5] has as its system fibroblast L929 cells. Kind of data set: Cytotoxicity assay by MTT. As to conditions: Mus musculus, fibroblast L929 cell line, 24 h. The procedure: MTT was applied to evaluate the cytotoxicity of the newly synthesized compounds against fibroblast L929 cells (Pasteur Institute, Tehran, Iran). Briefly, 100 μl of cell suspension (1 × 10^4 cells/well) in RPMI 1640 medium, as seeded in 96-well microplates and incubated for 24 h (37 °C, 5% CO2 air humidified). After removing the old media, 100 µl of each of the newly synthesized compounds was added to each well at different concentrations. The plates were incubated for another 24 h in the same condition. To determine the positive and negative controls, doxorubicin and DMSO were used. Cell survival was determined by adding 10 µL of an MTT solution (5 mg/ml in PBS) to each well and incubating at 37 °C for 3 h. The previous MTT-containing media was then removed, and 100 µL DMSO was pipetted into each well to dissolve the produced formazan crystals. Using an ELISA plate reader (Startfix-2100, Awareness, USA), absorbance was measured at 570 nm. By plotting the percentage of cytotoxicity versus concentration of the produced compounds, the concentrations that inhibit half of the cell population (IC50) were determined. A mean and standard deviation (SD) are used to represent the results. The percentage cell viability was calculated using the formula: Viability=Absorbance \, of \, treated \, cells-background \, absorbance(b)/Absorbance \, of \, untreated \, cells(c)-background \, absorbance(b)×100 where (b) = blank, and (c) = control.

In brackets after ≈: the same amount, converted by molar mass. Where two headings read alike, the source gives them in different places.

In the case of `COc1ccc(C2C(C#N)=C(N)Oc3cc(NS(=O)(=O)c4ccc(C)cc4)ccc32)cc1` (stereo not drawn) [1b, N-[2-amino-3-cyano-4-(4-methoxy-phenyl)-4H-chromene-7-yl]-4-methyl-benzene sulfonamide], the “MIC effect on S. aureus” value in data set [1] (SAR effect diagram, Table 6) is listed as “Negative”. Also, the MIC is greater than 512 µg/mL in data set [1] (Table 7, read-out: MIC for S. aureus); greater than 512 µg/mL in data set [1] (microdilution method, read-out: Minimum inhibitory concentrations (MIC) S. aureus ATCC 25923); 256 µg/mL (≈ 572 µM) in data set [2] (Table 6, antibacterial activity against E. coli, read-out: MIC for E. coli ATCC 25922); 256 µg/mL (≈ 572 µM) in data set [2] (microdilution method, read-out: Minimum inhibitory concentrations (MIC) E. coli ATCC 25922). In data set [2] (SAR effect diagram), the “MIC effect on E. coli” value was “Neutral”. In data set [3], the induced cell death is listed as 42.29%. This molecule also registered a viability at 24 h in data set [4] of 55%. The same molecule had an IC50 in data set [5] of 139 µg/mL (≈ 311 µM).
